Measurements from PubChem BioAssay AID248 (DTP/NCI, 2004).
Values joined by “and” are separate entries in the source; they are usually repeats but may differ in a detail not shown here. Identical values can stand only once. Toxic doses and inconclusive results are not listed. No stated cut-off is given here; in the data, active means T/C of 150% or more; inactive means T/C below 125%.

Test system: L1210 leukemia ip in BDF1 mice, survival T/C
Assay: NCI In Vivo Anticancer Drug Screen. Data for tumor model L1210 Leukemia (intraperitoneal) in B6D2F1 (BDF1) mice
Details: endpoint: mean survival time, higher = longer survival
Outline: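 Ratio derived from survival: compound-dosed mice over vehicle-dosed mice, all bearing a transplantable tumor.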

[1] = dose: 100.0 mg/kg/injection, schedule: Q01DX009 (ip), vehicle: saline with Tween-80
[2] = dose: 100.0 mg/kg/injection, schedule: Q04DX003 (ip), vehicle: saline with Tween-80
[3] = dose: 200.0 mg/kg/injection, schedule: Q01DX009 (ip), vehicle: saline with Tween-80
[4] = dose: 400.0 mg/kg/injection, schedule: Q01DX009 (ip), vehicle: saline with Tween-80
[5] = dose: 100.0 mg/kg/injection, schedule: Q04DX002 (ip), vehicle: Klucel (hydroxypropylcellulose) (HPC)
[6] = dose: 200.0 mg/kg/injection, schedule: Q04DX002 (ip), vehicle: Klucel (hydroxypropylcellulose) (HPC)

Measured: T/C

CCN=C=NCCCN(C)C
inactive: dose: 20.0 mg/kg/injection, schedule: Q01DX009 (ip), vehicle: saline 107 % of control | dose: 20.0 mg/kg/injection, schedule: Q04DX003 (ip), vehicle: saline 100 % of control | dose: 40.0 mg/kg/injection, schedule: Q01DX009 (ip), vehicle: saline 114 % of control | dose: 40.0 mg/kg/injection, schedule: Q04DX003 (ip), vehicle: saline 109 % of control | dose: 80.0 mg/kg/injection, schedule: Q04DX003 (ip), vehicle: saline 112 % of control

Cc1cc(C)c(NC(=S)NC(=O)C(C)Oc2ccccc2)c(C)c1 (stereo not drawn)
inactive: dose: 100.0 mg/kg/injection, schedule: Q01DX001 (ip), vehicle: saline with Tween-80 97 % of control | [1] 96 % of control and 100 % of control | dose: 100.0 mg/kg/injection, schedule: Q04DX002 (ip), vehicle: saline with Tween-80 101 % of control and 104 % of control | [2] 93 % of control | dose: 200.0 mg/kg/injection, schedule: Q01DX001 (ip), vehicle: saline with Tween-80 97 % of control | [3] 97 % of control and 92 % of control | dose: 200.0 mg/kg/injection, schedule: Q04DX002 (ip), vehicle: saline with Tween-80 97 % of control and 110 % of control | dose: 200.0 mg/kg/injection, schedule: Q04DX003 (ip), vehicle: saline with Tween-80 93 % of control | dose: 400.0 mg/kg/injection, schedule: Q01DX001 (ip), vehicle: saline with Tween-80 103 % of control | [4] 102 % of control | dose: 400.0 mg/kg/injection, schedule: Q04DX002 (ip), vehicle: saline with Tween-80 93 % of control and 121 % of control | dose: 400.0 mg/kg/injection, schedule: Q04DX003 (ip), vehicle: saline with Tween-80 93 % of control

CC1CCCCN1Cc1ccccc1CC(=O)c1ccccc1 (stereo not drawn)
inactive: [5] 93 % of control | [6] 107 % of control

CCCCCCC(=O)C1OC1CCCCCCCCC(=O)O (stereo not drawn)
inactive: dose: 100.0 mg/kg/injection, schedule: Q04DX002 (ip), vehicle: other 112 % of control | dose: 400.0 mg/kg/injection, schedule: Q04DX002 (ip), vehicle: other 94 % of control

C=C1CC(CCCCC2CC(=C)C(=O)O2)OC1=O (stereo not drawn)
inactive: dose: 100.0 mg/kg/injection, schedule: Q04DX002 (ip), vehicle: saline 108 % of control | dose: 200.0 mg/kg/injection, schedule: Q04DX002 (ip), vehicle: saline 101 % of control | dose: 400.0 mg/kg/injection, schedule: Q04DX002 (ip), vehicle: saline 108 % of control

O=S(=O)(Oc1ccc(-c2ccccc2)cc1)C1CC1c1ccccc1 (stereo not drawn)
inactive: dose: 100.0 mg/kg/injection, schedule: Q01DX001 (ip), vehicle: saline 93 % of control | dose: 100.0 mg/kg/injection, schedule: Q04DX003 (ip), vehicle: saline 93 % of control | dose: 200.0 mg/kg/injection, schedule: Q01DX001 (ip), vehicle: saline 97 % of control | dose: 200.0 mg/kg/injection, schedule: Q04DX003 (ip), vehicle: saline 96 % of control | dose: 400.0 mg/kg/injection, schedule: Q01DX001 (ip), vehicle: saline 90 % of control | dose: 400.0 mg/kg/injection, schedule: Q04DX003 (ip), vehicle: saline 91 % of control

CCCC(O)c1ccc(OC)c(OC)c1 (stereo not drawn)
inactive: [5] 97 % of control | [6] 102 % of control

CCCCCCCCCCCCCCCC(=O)N(CCCCN(CCCN(C)C)C(=O)CCCCCCCCCCCCCCC)CCCN(C)C
inactive: [2] 91 % of control

CCCC[N+]12CC=C3COC(=O)C(C)(O)C(C)(O)C(C)C(=O)OC(CC1)C32 (stereo not drawn)
inactive: dose: 50.0 mg/kg/injection, schedule: Q01DX009 (ip), vehicle: Klucel (hydroxypropylcellulose) (HPC) 92 % of control | dose: 100.0 mg/kg/injection, schedule: Q01DX009 (ip), vehicle: Klucel (hydroxypropylcellulose) (HPC) 95 % of control | dose: 200.0 mg/kg/injection, schedule: Q01DX009 (ip), vehicle: Klucel (hydroxypropylcellulose) (HPC) 100 % of control

OCCOc1ccc(Cl)cc1
inactive: [1] 98 % of control | [3] 110 % of control | [4] 102 % of control

CC12CCC3=C(OCCO3)C1=CCC1C2CCC2(C)C(O)CCC12 (stereo not drawn)
inactive: dose: 50.0 mg/kg/injection, schedule: Q01DX001 (sc), vehicle: steriod suspending solution 95 % of control | dose: 100.0 mg/kg/injection, schedule: Q01DX001 (sc), vehicle: steriod suspending solution 91 % of control | dose: 200.0 mg/kg/injection, schedule: Q01DX001 (sc), vehicle: steriod suspending solution 103 % of control | dose: 400.0 mg/kg/injection, schedule: Q01DX001 (sc), vehicle: steriod suspending solution 101 % of control
